Each structure is given as a SMILES string.

One may read the EC50 as the concentration giving half of the maximal effect.

In the test the target is Metabotropic glutamate receptor 4 (Homo sapiens, UniProt Q14833). Kind of test: Receptor Activity Assay: The disclosed compounds and compositions can be evaluated for their ability to act as a potentiator of metabotropic glutamate receptor activity, in particular mGluR4 activity, by any suitable known methodology known in the art. For example, Chinese Hamster Ovary (CHO) cells transfected with human mGluR4 or HEK cells co-transfected with rat mGluR4 and the G-protein regulated Inwardly Rectifying Potassium channel (GIRK) were plated in clear bottom assay plates for assay in a Hamamatsu FDSS Fluorometric Plate Reader. The cells were loaded with either a Ca2+-sensitive fluorescent dye or the thallium responsive dye and the plates were washed and placed into a suitable kinetic plate reader. For human mGluR4 assays, a fluorescence baseline was established for 3-5 seconds, the disclosed compounds were then added to the cells, and the response in cells was measured. The format is functional, cell-based, HEK293.
Sequence of Metabotropic glutamate receptor 4 (Q14833 whole entry): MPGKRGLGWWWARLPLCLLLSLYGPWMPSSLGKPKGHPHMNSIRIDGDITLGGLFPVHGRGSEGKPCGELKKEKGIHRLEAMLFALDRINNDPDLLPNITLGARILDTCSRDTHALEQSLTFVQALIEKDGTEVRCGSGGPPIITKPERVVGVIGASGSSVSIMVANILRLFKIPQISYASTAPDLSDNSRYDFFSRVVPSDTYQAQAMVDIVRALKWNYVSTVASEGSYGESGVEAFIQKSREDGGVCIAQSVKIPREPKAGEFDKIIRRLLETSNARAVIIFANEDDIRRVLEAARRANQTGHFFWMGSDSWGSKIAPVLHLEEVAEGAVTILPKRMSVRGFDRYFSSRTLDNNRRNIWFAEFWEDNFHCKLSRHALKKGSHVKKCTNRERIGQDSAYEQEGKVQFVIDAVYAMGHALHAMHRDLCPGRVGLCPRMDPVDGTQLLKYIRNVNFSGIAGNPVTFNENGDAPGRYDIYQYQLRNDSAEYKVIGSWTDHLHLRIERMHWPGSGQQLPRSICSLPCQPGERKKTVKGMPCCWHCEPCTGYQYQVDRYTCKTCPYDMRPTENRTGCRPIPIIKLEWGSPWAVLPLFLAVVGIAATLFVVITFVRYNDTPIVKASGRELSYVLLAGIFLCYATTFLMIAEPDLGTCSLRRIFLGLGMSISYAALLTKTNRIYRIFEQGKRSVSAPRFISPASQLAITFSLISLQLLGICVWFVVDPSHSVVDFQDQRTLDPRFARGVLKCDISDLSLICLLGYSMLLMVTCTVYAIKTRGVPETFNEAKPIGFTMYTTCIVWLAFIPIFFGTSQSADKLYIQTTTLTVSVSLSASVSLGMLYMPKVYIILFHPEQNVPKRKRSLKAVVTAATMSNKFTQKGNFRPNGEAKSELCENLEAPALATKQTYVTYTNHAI
`Cc1ccc(CS(=O)(=O)c2sc(NC(=O)c3ccccn3)nc2C)cc1`: the EC50 was 445 nM.
For `Cc1nc(NC(=O)c2ccccn2)sc1S(=O)(=O)Cc1ccccc1F`, the EC50 turned out to be 1330 nM.
Turning to `Cc1ccc(S(=O)(=O)c2sc(NC(=O)c3ccccn3)nc2C)cc1`, the concentration for a half-maximal effect (EC50) turned out to be 1610 nM.
Regarding `CCc1nc(NC(=O)c2ccccn2)sc1S(=O)(=O)Cc1c(C)cc(C)cc1C`, the 50% effective concentration (EC50) worked out at 354 nM.
The same measure for `O=C(Nc1nnc(S(=O)(=O)Cc2ccccc2)s1)c1ccccn1`: over 10000 nM.
Take `O=C(Nc1nc(C(F)F)c(S(=O)(=O)Cc2c(F)cccc2F)s1)c1ccccn1`: the EC50 turned out to be 683 nM.
The same measure for `Cc1nc(NC(=O)c2ccccn2)sc1S(=O)(=O)Cc1ccc(F)cc1F`: 1010 nM; for `CC(C)c1nc(NC(=O)c2ccccn2)sc1S(=O)(=O)Cc1ccccc1F`: 3660 nM.
Consider `O=C(Nc1nc(C(F)(F)F)c(S(=O)(=O)Cc2ccccc2F)s1)c1ccccn1`, for which the EC50 was found to be 401 nM.
Consider `O=C(Nc1nc(C(F)(F)F)c(S(=O)(=O)Cc2c(F)cccc2F)s1)c1ccccn1`, for which the EC50 amounted to 1060 nM.
For `O=C(Nc1nc(C(F)(F)F)c(S(=O)(=O)Cc2ccc(F)cc2F)s1)c1ccccn1`, the concentration giving a half-maximal response (EC50) was 1730 nM.
For the molecule `CCc1nc(NC(=O)c2ccccn2)sc1S(=O)(=O)Cc1c(Cl)cccc1Cl`, the EC50 worked out at 88 nM.
The same measure for `O=C(Nc1ncc(S(=O)(=O)Cc2ccc(Cl)cc2F)s1)c1ccccn1`: 44.1 nM; for `O=C(Nc1nc(C2CC2)c(S(=O)(=O)Cc2ccccc2Cl)s1)c1ccccn1`: 2980 nM.
As for `Cc1cccc(S(=O)(=O)c2sc(NC(=O)c3ccccn3)nc2C)c1`, the 50% effective concentration (EC50) was found to be 6970 nM.
Consider `O=C(Nc1nc(C(F)(F)F)c(S(=O)(=O)Cc2ccc(Cl)cc2Cl)s1)c1ccccn1`, for which the 50% effective concentration (EC50) is 497 nM.
Under `O=C(Nc1ncc(S(=O)(=O)Cc2ccccc2F)s1)c1ccccn1` stands 398 nM; under `O=C(Nc1nc(C2CC2)c(S(=O)(=O)Cc2ccc(Cl)cc2F)s1)c1ccccn1`, 1290 nM; under `Cc1nc(NC(=O)c2ccccn2)sc1S(=O)(=O)Cc1ccc(F)cc1`, 1510 nM.
As to `Cc1nc(NC(=O)c2ccccn2)sc1S(=O)(=O)C(C)c1ccccc1F` (stereo not given), the EC50 worked out at 4780 nM.
As to `CCc1nc(NC(=O)c2ccccn2)sc1S(=O)(=O)Cc1c(F)cccc1F`, the 50% effective concentration (EC50) was 139 nM.
For the molecule `Cc1nc(NC(=O)c2ccccn2)sc1S(=O)(=O)Cc1cc(F)c(F)cc1F`, the half-maximal effective concentration (EC50) was 322 nM.
In the case of `CCc1nc(NC(=O)c2ccccn2)sc1S(=O)(=O)Cc1ccc(Cl)cc1Cl`, the 50% effective concentration (EC50) was found to be 939 nM.
Consider `Cc1nc(NC(=O)c2ccccn2)sc1S(=O)(=O)Cc1cc(F)ccc1F`, for which the EC50 turned out to be 1070 nM.
As for `O=C(Nc1nc(C2CC2)c(S(=O)(=O)Cc2ccccc2F)s1)c1ccccn1`, the EC50 was determined as 249 nM.
With `Cc1nc(NC(=O)c2ccccn2)sc1S(=O)(=O)Cc1c(F)cccc1Cl`, the EC50 came out at 192 nM.
As for `COc1ccc(CS(=O)(=O)c2sc(NC(=O)c3ccccn3)nc2C)cc1`, the concentration giving a half-maximal response (EC50) was 1960 nM.
The same measure for `O=C(Nc1nc(CO)c(S(=O)(=O)Cc2c(F)cccc2F)s1)c1ccccn1`: 8810 nM.
In the case of `CCc1nc(NC(=O)c2ccccn2)sc1S(=O)(=O)Cc1cccc(Cl)c1F`, the EC50 came to 488 nM.
In the case of `O=C(Nc1nc(C(F)(F)F)c(S(=O)(=O)Cc2ccc(Cl)cc2F)s1)c1ccccn1`, the EC50 is 181 nM.
The same measure for `CCc1nc(NC(=O)c2ccccn2)sc1S(=O)(=O)Cc1c(F)cccc1Cl`: 141 nM.
As to `O=C(Nc1ncc(S(=O)(=O)Cc2ccccc2Cl)s1)c1ccccn1`, the half-maximal effective concentration (EC50) is over 10000 nM.
Under `O=C(Nc1ncc(S(=O)(=O)Cc2c(F)cccc2F)s1)c1ccccn1` stands 170 nM; under `O=C(Nc1nc(C2CC2)c(S(=O)(=O)Cc2ccc(F)cc2F)s1)c1ccccn1`, 1050 nM.
As for `Cc1nc(NC(=O)c2ccccn2)sc1S(=O)(=O)Cc1ccc(Cl)cc1F`, the 50% effective concentration (EC50) worked out at 255 nM.
Take `O=C(Nc1nc(C(F)(F)F)c(S(=O)(=O)Cc2ccccc2Cl)s1)c1ccccn1`: the EC50 worked out at 271 nM.
Regarding `Cc1nc(NC(=O)c2ccccn2)sc1S(=O)(=O)Cc1ccc(Cl)cc1`, the half-maximal effective concentration (EC50) amounted to 486 nM.
For `Cc1nc(NC(=O)c2ccccn2)sc1S(=O)(=O)Cc1c(Cl)cccc1Cl`, the EC50 is 117 nM.
`Cc1nc(NC(=O)c2ccccn2)sc1S(=O)(=O)Cc1ccc(Cl)cc1Cl`: the EC50 is 289 nM.
The same measure for `O=C(Nc1ncc(SCc2ccc(Cl)cc2F)s1)c1ccccn1`: 8240 nM; for `CC(C)c1nc(NC(=O)c2ccccn2)sc1S(=O)(=O)Cc1c(F)cccc1F`: 316 nM.
Under `Cc1nc(NC(=O)c2ccccn2)sc1S(=O)(=O)Cc1ccc(F)c(Cl)c1` stands 2350 nM.
For the molecule `Cc1nc(NC(=O)c2ccccn2)sc1S(=O)(=O)Cc1ccccc1C(F)(F)F`, the EC50 stood at 1020 nM.
Consider `CC(C)c1nc(NC(=O)c2ccccn2)sc1S(=O)(=O)Cc1ccc(F)cc1F`, for which the half-maximal effective concentration (EC50) came to 3110 nM.
Under `CCc1nc(NC(=O)c2ccccn2)sc1S(=O)(=O)Cc1ccc(C)cc1` stands 450 nM; under `Cc1nc(NC(=O)c2ccccn2)sc1S(=O)(=O)Cc1ccc(F)c(F)c1`, 937 nM.
For the molecule `Cc1nc(NC(=O)c2ccccn2)sc1S(=O)(=O)Cc1ccc(C(C)C)cc1`, the concentration giving a half-maximal response (EC50) worked out at 1050 nM.
`Cc1nc(NC(=O)c2ccccn2)sc1S(=O)(=O)Cc1cccc(C(F)(F)F)c1`: the EC50 came out at 2460 nM.
Take `CC(C)c1nc(NC(=O)c2ccccn2)sc1S(=O)(=O)Cc1ccc(Cl)cc1F`: the EC50 amounted to 2930 nM.
Take `CC(C)c1nc(NC(=O)c2ccccn2)sc1S(=O)(=O)Cc1ccc(Cl)cc1Cl`: the EC50 was 3300 nM.
Consider `O=C(Nc1ncc(SCc2ccc(Cl)cc2Cl)s1)c1ccccn1`, for which the EC50 was 5000 nM.
For the molecule `Cc1nc(NC(=O)c2ccccn2)sc1S(=O)(=O)Cc1cccc(Cl)c1F`, the EC50 worked out at 535 nM.
As to `CC(C)c1nc(NC(=O)c2ccccn2)sc1S(=O)(=O)C(C)c1ccccc1Cl` (stereo not given), the EC50 was found to be 3750 nM.
Consider `O=C(Nc1ncc(S(=O)(=O)Cc2ccc(Cl)cc2Cl)s1)c1ccccn1`, for which the EC50 worked out at 49.9 nM.
Turning to `O=C(Nc1nc(C2CC2)c(S(=O)(=O)Cc2c(F)cccc2F)s1)c1ccccn1`, the EC50 was over 10000 nM.
For the molecule `Cc1nc(NC(=O)c2ccccn2)sc1S(=O)(=O)Cc1ccccc1Cl`, the EC50 is 504 nM.
With `Cc1nc(NC(=O)c2ccccn2)sc1S(=O)(=O)Cc1c(F)cccc1F`, the concentration for a half-maximal effect (EC50) worked out at 312 nM.
Under `CCc1nc(NC(=O)c2ccccn2)sc1S(=O)(=O)Cc1ccc(Cl)cc1F` stands 294 nM; under `Cc1ccccc1CS(=O)(=O)c1sc(NC(=O)c2ccccn2)nc1C`, 709 nM; under `Cc1nc(NC(=O)c2ccccn2)sc1S(=O)(=O)C(C)c1ccccc1Cl` (stereo not given), 3230 nM.
For the molecule `O=C(Nc1nc(CF)c(S(=O)(=O)Cc2c(F)cccc2F)s1)c1ccccn1`, the concentration giving a half-maximal response (EC50) stood at 463 nM.
`O=C(Nc1nc(C2CC2)c(S(=O)(=O)Cc2ccc(Cl)cc2Cl)s1)c1ccccn1`: the EC50 is over 10000 nM.
The same measure for `CC(C)c1nc(NC(=O)c2ccccn2)sc1S(=O)(=O)C(C)c1ccccc1F` (stereo not given): 9570 nM.
For `CC(C)c1nc(NC(=O)c2ccccn2)sc1S(=O)(=O)Cc1ccccc1Cl`, the EC50 was found to be 1950 nM.
The same measure for `Cc1nc(NC(=O)c2ccccn2)sc1S(=O)(=O)Cc1cccc(Cl)c1`: 1390 nM.

These data come from ChEMBL document CHEMBL3886378, “Heterocyclic sulfone mGluR4 allosteric potentiators, compositions, and methods of treating neurological dysfunction” (2015).
